Measurements as given in patent US20220249599A1, “TREATMENT OF IMPLANTS WITH ENGINEERED ANTIMICROBIAL AMPHIPHILIC PEPTIDES” (priority 2018, published 2022).
“And” between values parts separate entries of the source, which are not always exact repeats. Equal entries are not always repeated. Where two headings read alike, the source gives them in different places. Marks after values point to notes of the source that are not given here. Ends that are not written are not given here.

Key:
[1] = system: Enterococcus faecium (n = 104); test: microbe, parasite or virus in culture; conditions: n = 104
Method: Comparator antibiotics were supplied by Micromyx, and stock solutions were prepared on the first day of testing using solvents recommended by CLSI (1). Stock solutions of all compounds were made at 40× the final testing concentration and stored at −80° C. prior to testing. Information regarding compound source, catalog and lot number, testing concentrations and drug diluent for the comparators and test agent are detailed below in Table 3.
The test organisms evaluated in this study consisted of clinical isolates from the Micromyx Repository and reference isolates from the American Type Culture Collection (ATCC; Manassas, Va.). The clinical isolates were obtained from USA hospitals. Upon initial receipt at Micromyx, the organisms were sub-cultured onto an appropriate agar medium. Following incubation, colonies were harvested from these plates and cell suspensions prepared and frozen at −80° C. with a cryoprotectant. Prior to testing, the isolates were streaked from frozen vials onto Trypticase Soy Agar with 5% sheep blood (Becton Dickenson [BD]; Sparks, MD; Lot Nos. 7173618, 7166759, 7208688, 72144895, 7228505 and Remel Lenexa, Kans. Lot No. 212574). Plates were incubated at 35° C. overnight.
Mueller Hinton II broth (MHB II; BD; Lot Nos. 6258541 and 7143896) was used for MIC testing of aerobic organisms.
MIC values were determined using a broth microdilution procedure described by CLSI (1, 3). Automated liquid handlers (Multidrop 384, Labsystems, Helsinki, Finland; Biomek 2000 and Biomek FX, Beckman Coulter, Fullerton Calif.) were used to conduct serial dilutions and liquid transfers.
To prepare the drug mother plates, which would provide the serial drug dilutions for the replicate daughter plates, the wells of columns 2-12 of standard 96-well microdilution plates (Costar 3795) were filled with 150 µl of the designated diluent for each row of drug. The test articles and comparator compounds ([…] at 40× the highest concentration to be tested) were dispensed into the appropriate wells in column 1. The Biomek 2000 was then used to make 2-fold serial dilutions in the mother plates from column 1 through column 11. The wells of Column 12 contained no drug and served as the organism growth control wells for the assay.
The daughter plates were loaded with […] per well of MHB II using the Multidrop 384. The daughter plates were completed on the Biomek FX instrument which transferred 5 µL of drug solution from each well of a mother plate to the corresponding well of each daughter plate in a single step. A standardized inoculum of each test organism was prepared per CLSI methods (1). The inoculum for each organism was dispensed into sterile reservoirs divided by length (Beckman Coulter), and the Biomek 2000 was used to inoculate the plates. Daughter plates were placed on the Biomek 2000 work surface in reverse orientation so that inoculation took place from low to high drug concentration.
Plates were stacked 3-4 high, covered with a lid on the top plate, placed in plastic bags, and incubated at 35° C. for 16 to 20 hrs. Following incubation, the microplates were removed from the incubator and viewed from the bottom using a plate viewer. […] The MIC was read and recorded as the lowest concentration of drug that inhibited visible growth of the organism.
Clinical breakpoints to determine percent resistance within a given organism group were obtained from CLSI (3), with the exception of colistin for K. pneumoniae, Enterobacter spp., and E. coli, which are only available from EUCAST.

[2] = monkey
Method: Animals will be obtained from the Test Facility's colony of adult male cynomolgous monkeys (Macaca fascicularis) of Chinese origin. Animals will be weighed prior to dosing.
Intravenous administration will be via 30 minute infusion into a temporary percutaneous catheter placed into a saphenous vein. Prior to and following dose administration, the catheter will be flushed with 0.5 mL saline prior to removal. All dosing syringes will be weighed prior to and following dosing.
Serial blood samples will be collected via femoral vein (cephalic or saphenous, as necessary). Approximately 1 mL blood samples will be collected into K2EDTA tubes.
Blood samples will be collected into K2EDTA tubes and stored on wet ice. Whole blood will be processed to plasma by centrifugation (2400-2700 rpm at 5° C.) within 30 minutes of collection. Plasma samples will be split into 2 equal aliquots and stored at −80° C. until analysis.
(§1) Prior to extraction, a known concentration of a mass-adjusted internal standard (IS) will be added to assess recovery and allow for quantitation. Purified samples will be further subjected to high-performance liquid chromatography (HPLC) using C18 300 or 130 angstrom columns prior to MS/MS analysis. Multiple charge states will be observed by MS, so MS/MS will be employed to enable multiple reaction monitoring (MRM) analyses to determine the most MRM transitions with the highest signal-to-noise gain. Compound plasma concentrations will be determined by comparing to and compensating with co-purified IS peak intensity and validated calibrated standard curves.
Toxicokinetic parameters will be calculated using non-compartmental methods as implemented in the Phoenix® WinNonlin® ver. 6.3 comprehensive TK/PK analysis software program (Pharsight Corporation; Mountain View, Calif.) using an IV infusion model. Toxicokinetic analysis will be conducted using a 30-minute intravenous infusion time. Therefore, 30 minutes will be added to each sample time point postdose to obtain nominal time for TK analysis. Nominal times and dosage levels will be used for all calculations. Values below the lower limit of quantitation (BLQ) will be assigned a value of zero for the toxicokinetic calculations. Microsoft® Excel® 2013 will be used for receipt of bioanalytical data, minor formatting, including setting BLQ values to “0”, transfer into WinNonlin® for TK analysis, and calculation of the mean when an approximated value will be excluded. All plasma concentration data from all animals will be included in the analysis.

[3] = mouse
Text: Male CD-1 mice will be received from an approved vendor and allowed to acclimate for a minimum of two days. Fasting will be not required.
All dosing syringes will be weighed prior to and following dosing. IV doses will be administered as a slow bolus (over ˜30 seconds) via direct venipuncture of a tail vein. All animals will be observed at dosing and each scheduled collection. All abnormalities will be recorded.
Terminal blood samples will be collected via cardiac puncture following inhalation anesthesia.
Sample Processing and Storage: Blood samples will be collected into K2EDTA tubes and stored on wet ice. Whole blood will be processed to plasma by centrifugation (3500 rpm at 5° C.) within 30 minutes of collection. Plasma samples will be split into 2 equal aliquots and each transferred into 96 well plates (matrix tubes) and stored at −80° C. until analysis. Administered doses will be determined gravimetrically.
as §1
Pharmacokinetic parameters will be calculated using non-compartmental methods as implemented in the Phoenix® WinNonlin® ver. 6.3 comprehensive TK/PK analysis software program (Pharsight Corporation; Mountain View, Calif.) using an IV infusion model. Pharmacokinetic analysis will be conducted using a 30-minute intravenous infusion time. Therefore, 30 minutes will be added to each sample time point postdose to obtain nominal time for TK analysis. Nominal times and dosage levels will be used for all calculations. Values below the lower limit of quantitation (BLQ) will be assigned a value of zero for the pharmacokinetic calculations. Microsoft® Excel® 2013 will be used for receipt of bioanalytical data, minor formatting, including setting BLQ values to “0”, transfer into WinNonlin® for PK analysis, and calculation of the mean when an approximated value will be excluded. All plasma concentration data from all animals will be included in the analysis. Graphical presentations will be performed using Microsoft® Excel® 2013.

[4] = IV infusion 1 mg/kg, individual animals
[5] = IV infusion 3 mg/kg, individual animals
[6] = IV infusion 10 mg/kg, individual animals
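For AUC0-24hr in this document: adult male cynomolgus monkeys given a 30-min IV infusion, plasma drug levels quantified by LC-MS/MS against internal standard, parameters from non-compartmental IV infusion model analysis.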
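For AUCinf Extrapolated in this document: adult male cynomolgus monkeys given a 30-min IV infusion, plasma drug levels quantified by LC-MS/MS against internal standard, parameters from non-compartmental IV infusion model analysis.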
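For AUClast in this document: adult male cynomolgus monkeys given a 30-min IV infusion, plasma drug levels quantified by LC-MS/MS against internal standard, parameters from non-compartmental IV infusion model analysis.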
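For Cmax in this document: adult male cynomolgus monkeys given a 30-min IV infusion, plasma drug levels quantified by LC-MS/MS against internal standard, parameters from non-compartmental IV infusion model analysis.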

RRWVRRVRRVWRRVVRVVRRWVRR-NH2 (C-terminus assumed) [SEQ ID NO: 1]
MIC50 [1]: 0.5 mg/L
MIC90 [1]: 1 mg/L
MIC range [1]: 0.25 to 2 mg/L
Mode (MIC) [1]: 1 mg/L
AUC0-24hr ([2]; IV infusion 1 mg/kg, Mean): 1.09 µg·h/mL
AUCinf ([2]; IV infusion 1 mg/kg, Mean): 1170 ng·h/mL
AUCinf Extrapolated ([2]; IV infusion 1 mg/kg, Mean): 10.0%
AUClast ([2]; IV infusion 1 mg/kg, Mean): 0.983 µg·h/mL
Cmax ([2]; IV infusion 1 mg/kg, Mean): 1.71 µg/mL
Dose Normalized AUClast ([2]; IV infusion 1 mg/kg, Mean): 983
Dose Normalized Cmax ([2]; IV infusion 1 mg/kg, Mean): 1710
T1/2 ([2]; IV infusion 1 mg/kg, Mean): 2 h
Vss ([2]; IV infusion 1 mg/kg, Mean): 1380 mL/kg
AUC0-24hr [2, 4]: 0.821 µg·h/mL and 1.82 µg·h/mL and 0.616 µg·h/mL
AUCinf [2, 4]: 938* hr*ng/mL and 1730 hr*ng/mL and 610 hr*ng/mL
AUClast [2, 4]: 0.74 µg·h/mL and 1.61 µg·h/mL and 0.595 µg·h/mL
CL [2, 4]: 1070* mL/hr/kg and 579 mL/hr/kg and 1640 mL/hr/kg
Cmax [2, 4]: 1.46 µg/mL and 2.66 µg/mL and 0.997 µg/mL
Dose Normalized AUClast [2, 4]: 740 and 1610 and 595
Dose Normalized Cmax [2, 4]: 1460 and 2660 and 997
Tmax [2, 4]: 2 min
Vss [2, 4]: 1530* mL/kg and 1260 mL/kg and 1510 mL/kg
AUC0-24hr ([2]; IV infusion 3 mg/kg, Mean): 7.58 µg·h/mL
AUCinf ([2]; IV infusion 3 mg/kg, Mean): 7710 ng·h/mL
AUCinf Extrapolated ([2]; IV infusion 3 mg/kg, Mean): 1.5%
AUClast ([2]; IV infusion 3 mg/kg, Mean): 7.58 µg·h/mL
Cmax ([2]; IV infusion 3 mg/kg, Mean): 10.3 µg/mL
Dose Normalized AUClast ([2]; IV infusion 3 mg/kg, Mean): 2530
Dose Normalized Cmax ([2]; IV infusion 3 mg/kg, Mean): 3450
T1/2 ([2]; IV infusion 3 mg/kg, Mean): 5.2 h
Vss ([2]; IV infusion 3 mg/kg, Mean): 1290 mL/kg
AUC0-24hr [2, 5]: 6.65 µg·h/mL and 11 µg·h/mL and 5.12 µg·h/mL
AUCinf [2, 5]: 6730 ng·h/mL and 11200 ng·h/mL and 5180 ng·h/mL
AUCinf Extrapolated [2, 5]: 1.2% and 2.3% and 1.1%
AUClast [2, 5]: 6.65 µg·h/mL and 11 µg·h/mL and 5.12 µg·h/mL
CL [2, 5]: 446 mL/h/kg and 267 mL/h/kg and 580 mL/h/kg
Cmax [2, 5]: 6.83 µg/mL and 15.5 µg/mL and 8.69 µg/mL
Dose Normalized AUClast [2, 5]: 2220 and 3660 and 1710
Dose Normalized Cmax [2, 5]: 2280 and 5170 and 2900
T1/2 [2, 5]: 4.4 h and 6.3 h and 5 h
Tmax [2, 5]: 2 min and 1.5 min
Vss [2, 5]: 1580 mL/kg and 905 mL/kg and 1370 mL/kg
AUC0-24hr ([2]; IV infusion 10 mg/kg, Mean): 50.3 µg·h/mL
AUCinf ([2]; IV infusion 10 mg/kg, Mean): 50800 ng·h/mL
AUCinf Extrapolated ([2]; IV infusion 10 mg/kg, Mean): 1.3%
AUClast ([2]; IV infusion 10 mg/kg, Mean): 50.3 µg·h/mL
Cmax ([2]; IV infusion 10 mg/kg, Mean): 38.2 µg/mL
Dose Normalized AUClast ([2]; IV infusion 10 mg/kg, Mean): 5030
Dose Normalized Cmax ([2]; IV infusion 10 mg/kg, Mean): 3820
T1/2 ([2]; IV infusion 10 mg/kg, Mean): 4.6 h
Vss ([2]; IV infusion 10 mg/kg, Mean): 1260 mL/kg
AUCinf Extrapolated [2, 6]: 1.0% and 1.8% and 0.99%
Cmax [2, 6]: 26 µg/mL and 24.3 µg/mL and 64.3 µg/mL
Dose Normalized Cmax [2, 6]: 2600 and 2430 and 6430
T1/2 [2, 6]: 4.3 h and 4.9 h and 4.6 h
Tmax [2, 6]: 2 min
AUCIinf_D ([3]; IV Dose 3 mg/kg): <3500 kg·ng·h/mL/ng
AUCinf ([3]; IV Dose 3 mg/kg): <3.5 µg·h/mL
Extrapolated ([3]; IV Dose 3 mg/kg): ~0.5%
MRTlast ([3]; IV Dose 3 mg/kg): ~0.5 h
T1/2 ([3]; IV Dose 3 mg/kg): ~8 h
AUCIinf_D ([3]; IV Dose 15 mg/kg): 3589 kg·ng·h/mL/ng
Extrapolated ([3]; IV Dose 15 mg/kg): 0.49%
